Tests used:
[1] = molecular target: T1, Orexin/Hypocretin receptor type 1 (Homo sapiens) (UniProt O43613); assay: Binding affinity towards orexin receptor type 1.
T1 sequence (whole entry): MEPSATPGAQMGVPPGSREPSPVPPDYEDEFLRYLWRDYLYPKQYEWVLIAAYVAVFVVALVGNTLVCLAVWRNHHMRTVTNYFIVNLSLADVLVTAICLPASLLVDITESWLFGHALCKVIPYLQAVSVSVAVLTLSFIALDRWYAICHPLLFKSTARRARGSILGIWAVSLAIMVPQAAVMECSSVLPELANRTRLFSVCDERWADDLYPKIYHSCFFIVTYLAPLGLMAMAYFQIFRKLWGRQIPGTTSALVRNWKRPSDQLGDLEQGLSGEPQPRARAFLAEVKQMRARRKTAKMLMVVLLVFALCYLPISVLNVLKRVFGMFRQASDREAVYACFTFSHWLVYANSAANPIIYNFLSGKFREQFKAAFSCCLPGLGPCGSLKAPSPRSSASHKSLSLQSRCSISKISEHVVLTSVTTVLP

[2] = molecular target: 5-hydroxytryptamine receptor 2B (Homo sapiens, UniProt P41595); assay: Binding affinity against 5-hydroxytryptamine 2B receptor
[3] = molecular target: T2, 5-hydroxytryptamine receptor 2C (Homo sapiens, UniProt P28335); assay: Binding affinity against 5-hydroxytryptamine 2C receptor
T2 sequence (P28335 whole entry): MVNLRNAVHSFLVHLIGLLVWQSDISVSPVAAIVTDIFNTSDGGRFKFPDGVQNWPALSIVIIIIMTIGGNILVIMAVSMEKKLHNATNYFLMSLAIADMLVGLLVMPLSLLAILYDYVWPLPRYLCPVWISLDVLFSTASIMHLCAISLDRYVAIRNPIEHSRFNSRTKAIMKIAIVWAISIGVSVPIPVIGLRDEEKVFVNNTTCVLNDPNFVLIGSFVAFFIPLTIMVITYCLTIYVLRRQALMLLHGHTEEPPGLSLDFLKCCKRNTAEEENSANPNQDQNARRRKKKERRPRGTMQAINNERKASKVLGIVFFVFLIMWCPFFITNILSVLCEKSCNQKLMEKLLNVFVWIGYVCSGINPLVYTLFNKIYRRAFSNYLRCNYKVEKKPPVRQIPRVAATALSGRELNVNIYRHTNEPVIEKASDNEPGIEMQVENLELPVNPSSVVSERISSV

[4] = Steady state concentration was evaluated; format: ADME
[5] = Compound was tested in vivo for steady state brain-blood ratio after intravenous infusion of 1.8 mg/kg/h free base drug for 12h.; format: functional
[6] = Brain level determined after 2 hr from ip bolus dosing of 10 mg/kg; format: functional; conditions: route intraperitoneal
[7] = Brain level determined after 4 hr from a bolus 10 mg/kg ip dosing; format: functional; conditions: route intraperitoneal
[8] = in vivo; conditions: eutheria, po
[9] = Half life was evaluated in vivo after intraperitoneal administration; conditions: ip
[10] = molecular target: T3, Orexin receptor type 2 (Homo sapiens) (UniProt O43614)
T3 sequence (whole entry): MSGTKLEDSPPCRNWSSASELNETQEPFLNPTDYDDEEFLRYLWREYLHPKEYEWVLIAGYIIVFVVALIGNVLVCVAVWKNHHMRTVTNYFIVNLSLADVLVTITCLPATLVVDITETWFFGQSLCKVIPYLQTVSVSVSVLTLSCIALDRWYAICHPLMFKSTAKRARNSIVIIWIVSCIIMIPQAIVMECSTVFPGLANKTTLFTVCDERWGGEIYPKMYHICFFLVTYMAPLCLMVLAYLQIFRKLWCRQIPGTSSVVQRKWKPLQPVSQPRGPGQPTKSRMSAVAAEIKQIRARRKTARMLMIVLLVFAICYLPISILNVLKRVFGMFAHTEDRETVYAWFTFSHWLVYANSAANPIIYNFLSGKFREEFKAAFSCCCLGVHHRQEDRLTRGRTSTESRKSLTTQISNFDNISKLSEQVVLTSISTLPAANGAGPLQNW
Description: Compound was evaluated for its binding affinity towards Orexin receptor type 2

5-hydroxytryptamine receptor 2B, sequence (P41595 whole entry): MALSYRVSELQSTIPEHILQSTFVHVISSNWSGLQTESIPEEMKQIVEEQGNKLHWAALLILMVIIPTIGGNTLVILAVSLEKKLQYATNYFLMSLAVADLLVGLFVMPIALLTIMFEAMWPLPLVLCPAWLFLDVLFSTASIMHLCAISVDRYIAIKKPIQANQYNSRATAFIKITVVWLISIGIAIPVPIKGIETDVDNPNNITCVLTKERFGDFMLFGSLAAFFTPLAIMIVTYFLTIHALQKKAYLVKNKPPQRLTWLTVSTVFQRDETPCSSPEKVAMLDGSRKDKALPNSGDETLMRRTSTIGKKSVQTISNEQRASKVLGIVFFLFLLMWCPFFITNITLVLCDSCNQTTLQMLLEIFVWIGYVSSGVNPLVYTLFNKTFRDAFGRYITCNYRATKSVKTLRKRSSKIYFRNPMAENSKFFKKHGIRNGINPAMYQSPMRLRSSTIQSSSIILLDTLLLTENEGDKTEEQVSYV

For `Cn1ccc2cc(NC(=O)Nc3cccc4ccccc34)ccc21`, the pKb [1] was < 6.3.

In the case of `N#Cc1ccc(NC(=O)Nc2ccnc3ccccc23)cc1`, the pKb [1] is reported as < 6.2.

Work on `CN(C)c1ccc(NC(=O)Nc2ccnc3ccccc23)cc1Cl` yielded a pKb [1] of 7.4.

Work on `O=C(Nc1ccc2[nH]ccc2c1)Nc1ccnc2ccccc12` yielded a pKb [1] of 6.2.

With `CN(C)c1cccc(NC(=O)Nc2ccnc3ccccc23)c1` the pKb [1] was 6.1.

Work on `CSc1ccc(NC(=O)Nc2ccnc3cccnc23)cc1` yielded a pKb [1] of 7.5.

Compound `Cc1nc2ccc(NC(=O)Nc3ccnc4ccccc34)cc2o1` has a Ki [2] of 631 nM, a pKb [1] of 7.7 and a Ki [3] of 631 nM.

For `Cn1ccc2cc(NC(=O)Nc3ccnc4cccnc34)ccc21`, the pKb [1] was 7.3.

`CSc1ccc(NC(=O)Nc2ccnc3ccccc23)cc1` showed a Css [4] of 1 µM, a Ki [2] of 31.6 nM and a Ratio [5] of 0.1. For the same compound, the pKb [1] was 7.9 and the Ki [3] was 31.6 nM.

In the case of `CCN(CC)c1ccc(NC(=O)Nc2ccnc3ccccc23)cc1`, the Css [4] is reported as 0.7 µM, the Ki [2] is reported as 50.1 nM and the Ratio [5] is reported as 0.16. The pKb [1] was 7.4 and the Ki [3] was 31.6 nM.

For `COc1ccc(NC(=O)Nc2ccnc3ccccc23)cc1OC`, the pKb [1] was < 6.3.

Compound `O=C(Nc1cccc(Cl)c1)Nc1ccnc2ccccc12` has a pKb [1] of 6.4.

Work on `COc1ccc(NC(=O)Nc2ccnc3ccccc23)cc1` yielded a pKb [1] of 6.8.

In the case of `Nc1ccc(NC(=O)Nc2ccnc3ccccc23)cc1`, the pKb [1] is reported as < 6.1.

With `Cn1ccc2cc(NC(=O)Nc3ccncc3)ccc21` the pKb [1] was < 5.

Work on `Cc1nc2ccc(NC(=O)Nc3ccnc4ccncc34)cc2o1` yielded a pKb [1] of 5.9.

Compound `CN(C)c1ccc(NC(=O)Nc2ccnc3ccccc23)cc1` has a Css [4] of 4.2 µM, a Ki [2] of 79.4 nM and a Ratio [5] of 0.06. The pKb [1] was 7.8 and the Ki [3] was 126 nM.

`Cc1nc2ccc(NC(=O)Nc3ccnc4ncccc34)cc2o1` showed a pKb [1] of 6.5.

With `Cn1ccc2cc(NC(=O)Nc3ncnc4ccccc34)ccc21` the pKb [1] was < 6.3.

Compound `O=C(Nc1ccc2c(c1)OCCCO2)Nc1ccnc2ccccc12` has a pKb [1] of 7.4.

`O=C(Nc1ccc(N2CCCC2)cc1)Nc1ccnc2ccccc12` gave a pKb [1] of 6.4.

For `O=C(Nc1ccc2c(ccn2Cc2ccccc2)c1)Nc1ccnc2ccccc12`, the pKb [1] was < 6.1.

Work on `O=C(Nc1ccc2ncoc2c1)Nc1ccnc2ccccc12` yielded a pKb [1] of 7.

For `Cc1cc2cc(NC(=O)Nc3ccnc4ccccc34)ccc2n1C`, the Ki [2] was 3.98 nM and the Ki [3] was 79.4 nM.

In the case of `O=C(Nc1ccc2ocnc2c1)Nc1ccnc2ccccc12`, the pKb [1] is reported as < 6.2.

Compound `Cc1nc2ccc(NC(=O)Nc3ccnc4cccnc34)cc2o1` has a Css [4] of 0.49 µM, a Ki [2] of 3980 nM and a Brain level [6] of 3.8 µM. For the same compound, the Ratio [5] was 0.4, the pKb [1] was 7.4 and the Brain level [7] was <30 nM. For the same compound, the bioavailability [8] was 10%, the half-life [9] was 24 min and the pKb [10] was 5.7. For the same compound, the Ki [3] was > 5010 nM.

Work on `Cn1ccc2cc(NC(=O)Nc3ccnc4ccccc34)ccc21` yielded a Ki [2] of 2.51 nM, a pKb [1] of 7.5 and a Ki [3] of 25.1 nM.

In the case of `COc1ccc(NC(=O)Nc2ccnc3ccccc23)cc1Cl`, the Ki [2] is reported as 15.8 nM and the Ki [3] is reported as 50.1 nM.

`COc1cccc(NC(=O)Nc2ccnc3ccccc23)c1` showed a pKb [1] of 6.6.

For `CN1CCc2cc(NC(=O)Nc3ccnc4ccccc34)ccc21`, the Ki [2] was 12.6 nM, the pKb [1] was 7.6 and the Ki [3] was 50.1 nM.

For `O=C(Nc1ccccc1)Nc1ccnc2ccccc12`, the pKb [1] was < 6.1.

Reference: ChEMBL document CHEMBL1134731, “1,3-Biarylureas as selective non-peptide antagonists of the orexin-1 receptor” (Bioorg Med Chem Lett, 2001)
